Results reported in patent US20220380402A1, “6-HYDRAZINOADENOSINE COMPOUNDS WITH A2A ADENOSINE RECEPTOR AGONIST ACTIVITY” (ACADEMY OF MILITARY MEDICAL SCIENCES, priority 2019, published 2022).

Assays:
[1] = molecular target: T1, A2A adenosine receptor (Homo sapiens, UniProt P29274); test: Radioligand binding test ([3H]CGS21680 displacement, hA2A HEK-293 cell membrane); conditions: calculated from IC50 by Cheng and Prusoff equation; [3H]CGS21680 25 nM, Km 22 nM; 25° C., 90 minutes
T1 construct: purchased PerkinElmer Research Products (Boston, Mass.); host or cells: HEK-293 cells, stably transfected; membrane preparation
T1 sequence (P29274 whole entry): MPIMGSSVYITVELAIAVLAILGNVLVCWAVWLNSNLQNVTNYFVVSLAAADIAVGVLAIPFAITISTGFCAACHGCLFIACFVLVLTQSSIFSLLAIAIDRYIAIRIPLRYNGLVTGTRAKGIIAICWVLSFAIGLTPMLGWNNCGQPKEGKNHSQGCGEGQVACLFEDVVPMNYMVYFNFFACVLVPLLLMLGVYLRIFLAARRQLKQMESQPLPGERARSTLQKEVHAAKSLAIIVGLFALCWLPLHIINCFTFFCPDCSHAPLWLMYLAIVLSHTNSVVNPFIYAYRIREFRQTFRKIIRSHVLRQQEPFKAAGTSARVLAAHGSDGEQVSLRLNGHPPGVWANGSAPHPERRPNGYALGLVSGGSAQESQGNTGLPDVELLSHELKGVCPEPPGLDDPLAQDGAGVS
Procedure: [3H]CGS21680 (2-[p-(2-carboxyethyl)phenylethylamino]-5′-N-ethylformamidoadenosine, [carboxy-1-ethyl-3H(N)]; 250 μCi) was purchased from PerkinElmer Research Products (Boston, Mass.).
Cell membrane stably transfected with (human) A2A adenosine receptor was prepared in HEK-293 cells. The cell membrane was obtained from PerkinElmer Research Products (Boston, Mass.).
CGS21680 (2-[p-(2-carboxyethyl)phenylethylamino]-5′-N-ethylformamidoadenosine) was purchased from Selleck (Shanghai, CN).
The A2A adenosine receptors used were all expressed in the cell membrane. […] The specific binding percentage of [3H]CGS21680 was calculated according to the CPM value, % specific binding of [3H]CGS21680=(CPMsample−CPMLow Control)/(CPMHigh Control−CPMLow Control)*100, in which
High Control was 0.5% DMSO, Low Control was 100 μM CGS21680. The IC50 value was calculated based on the compound concentration and the specific binding percentage of [3H]CGS21680 by curve fitting.
The inhibition constant (Ki) value was calculated from the IC50 value according to the Cheng and Prusoff equation, Ki=IC50/(1+[S]/Km), in which [S] was the concentration of the radioligand (25 nM), and Km was the human A2AAR dissociation constant (22 nM) of [3H]CGS21680. The inhibition constant Ki values for Compounds 1 to 20 of the present invention binding to A2A adenosine receptor were shown in Table 1.

[2] = tested on: blood-brain barrier; test: Animal experiment of blood-brain barrier opening (FITC-Dextran in brain of SD rats); type: in vivo
Procedure: Fluorescein-labeled dextran FITC-Dextran (CAS: 60842-46-8) with a molecular weight of 10,000 MW was purchased from […] (Shanghai) Chemical Industry Development Co., Ltd.; PBS solution and experimental animal SD rats were obtained from commercial sources. FITC-Dextran solution was prepared with PBS to obtain six concentration gradients (0.001, 0.01, 0.1, 1, 0.5, 10 μg/ml), and a FITC-Dextran concentration standard curve was prepared by using microplate reader (λex=490 nm, λem=520 nm); 10 mg/ml FITC-Dextran solution was separately prepared, Compound 5 was added to PBS solution to make 1 mg/ml solution, 1 ml of 10 mg/ml FITC-Dextran solution and 1 ml of 1 mg/ml Compound 5 PBS solution were taken to make an administration solution; 1 ml of 10 mg/ml FITC-Dextran solution and 1 ml of PBS solution taken to make a blank control solution; 6 SD rats were injected with 2 ml of the administration solution respectively in the tail vein, while another 6 SD rats were injected with 2 ml of the blank control solution in the tail vein; after 30 minutes, the brain tissues of all SD rats were taken out, homogenized and centrifuged at 10,000 rpm for 15 minutes, and the supernatants were taken for testing; and a microplate reader (λex=490 nm, λem=520 nm) was used for the fluorescence detection of the solutions to be tested. […]

[3] = molecular target: human adenosine receptor A2A (Homo sapiens, UniProt P29274); test: Adenosine receptor A2A cAMP test (LANCE Ultra cAMP, hADORA2A-HEK293 cells); type: cell-based; conditions: for hA2AAR agonist function (in words): conclusion from cAMP test; for EC50: hADORA2A-HEK293 cells, 300 cells/well, stimulation of cyclic adenosine monophosphate
Chain of human adenosine receptor A2A (P29274 whole entry): as above
Excerpt: Experimental reagents and consumables: DMEM/F12, G418, Penicillin-Streptomycin, Versene Solution, HEPES, Hank's Buffered Saline Solution, PBS (pH 7.4, 1×, sterile), FBS, BSA Stabilizer 7.5%, Rolipram, NECA, were purchased from Gibico, Hyclone and Sigma, respectively. LANCE® Ultra cAMP kit (Eu-cAMP tracer, Ulight-anti-cAMP reagent, cAMP detection buffer) and hADORA2A-HEK293 cells were purchased from PerkinElmer Research Products (Boston, Mass.). All other reagents were of analytical grade and obtained from commercial sources. 384-well polypropylene microplate and 384-well white solid plate were purchased from Labcyte and Corning, respectively.
Cells stably expressing human adenosine receptor A2A (hADORA2A-HEK293 cells) were cultured in DMEM/F12 medium containing 10% FBS, 1× Penicillin-Streptomycin and 400 μg/ml G418 in a 37° C., 5% CO2 environment. Before the experiment, the cells were digested with Versene solution, and the cells were collected by centrifugation at 200 g at room temperature for 5 minutes, and finally resuspended with detection buffer (Hank's buffered saline solution, containing 5 mM HEPES, 0.1% BSA stabilizer and 10 μM Rolipram, pH 7.4). TECAN automated pipetting workstation was used to prepare a compound source plate by 3-fold diluting the compound in a 384-well polypropylene microplate with DMSO to form 11 concentration points, in which the 11 concentration points of the compound were 10 mM, 3.33 mM, 1.11 mM, 0.37 mM, 0.12 mM, 0.041 mM, 0.013 mM, 4.57×10^−3 mM, 1.52×10^−3 mM, 5×10^−4 mM and 1.7×10^−4 mM, respectively. Echo ultrasonic pipetting system (Labcyte) was used to transfer the test compound from the compound source plate to the detection plate, in which the volume of the compound transferred was 10 nl/well. The hADORA2A-HEK293 cell suspension was diluted with detection buffer to 30,000 cells/ml, and the cell suspension was transferred to the detection plate at a volume of 10 μl/well (300 cells/well). The detection plate was centrifuged at 150 g for 1 minute and pre-incubated at room temperature for 30 minutes. […] EnVison microplate reader (EnVision multimode plate reader, PerkinElmer) was used to test the level of cyclic adenosine monophosphate in the final solution (λex=320 nm, λem=665 nm & 615 nm). The EC50 (nM) value of the compound interacting with A2A adenosine receptor to stimulate the production of a level of cyclic adenosine monophosphate was calculated. The compound A2A receptor agonist titer was expressed as the EC50 (nM) value of the compound interacting with the A2A adenosine receptor to stimulate the production of a level of cyclic adenosine monophosphate.

| Structure (SMILES) | Ki [1] [nM] | Opening of the blood-brain barrier (in words) ([2]; SD rats, FITC-Dextran co-administered by tail vein, 30 minutes) | melting point [°C] | hA2AAR agonist function (in words) [3] | EC50 [3] [nM] | FITC-Dextran concentration in the brain of SD rats ([2]; tail vein injection of 2 ml (10 mg/ml FITC-Dextran 10,000 MW + 1 mg/ml compound in PBS, 1:1), brain homogenate supernatant after 30 minutes, average of 6 rats, blank control 0.021) [µg/mL] |
| --- | --- | --- | --- | --- | --- | --- |
| OC[C@H]1O[C@@H](n2cnc3c(N/N=C/c4ccc(-c5ccc(Br)cc5)o4)ncnc32)[C@H](O)[C@@H]1O [Compound 5, (2R,3R,4S,5R)-2-{6-{2-{(E)-[5-(4-bromophenyl)furan-2-yl]methylene}hydrazino}-9H-purin-9-yl}-5-(hydroxymethyl)tetrahydrofuran-3,4-diol] | 353 | could open the blood-brain barrier | 162 |  |  |  |
| OC[C@H]1O[C@@H](n2cnc3c(N/N=C/c4ccc(OCc5ccc(F)cc5)cc4)ncnc32)[C@H](O)[C@@H]1O [Compound 7, (2R,3R,4S,5R)-2-{6-{2-{(E)-4-[(4-fluorobenzyl)oxy]benzylidene}hydrazino}9H-purin-9-yl}-5-(hydroxymethyl)tetrahydrofuran-3,4-diol] | 13.8 |  | 206 | hA2AAR agonists | 18.6 | 0.057 |
| OC[C@H]1O[C@@H](n2cnc3c(N/N=C/c4cncs4)ncnc32)[C@H](O)[C@@H]1O [Compound 16, (2R,3S,4R,5R)-2-(hydroxymethyl)-5-{6-{2-[(E)-thiazol-5-yl-methylene]hydrazino}-9H-purin-9-yl}tetrahydrofuran-3,4-diol] | 15.8 |  | 224 | hA2AAR agonists | 43.5 |  |
